Laboratory results published in ChEMBL document CHEMBL2390948, “Stapled peptide-based membrane fusion inhibitors of hepatitis C virus” (Bioorg Med Chem, 2013).
Bridge positions count the residues as written; N and C are the ends. Square brackets hold non-standard residues; d marks the D form. Peptide text beside a SMILES is read from it. R8 = C=CCCCCCC[C@@](C)(N)C(=O)O; S8 = C=CCCCCCC[C@](C)(N)C(=O)O; R5 = C=CCCC[C@@](C)(N)C(=O)O; S5 = C=CCCC[C@](C)(N)C(=O)O

How the values were obtained:
Hepacivirus hominis = experiment: Inhibition of HCV envelope glycoprotein E2 interaction to human cell surface protein CD81
Hepatitis C virus [1] = experiment: Antiviral activity against HCV JFH-1 infected in human Huh 7.5.1 cells after 2 days by firefly luciferase reporter gene assay; type: functional, organism-based, Hepacivirus hominis; conditions: JFH-1, Huh-7.5.1, 48 h
Hepatitis C virus [2] = experiment: Inhibition of HCV 1b con1 envelope glycoprotein E2 interaction to cell surface protein CD81 in human Huh 7.5.1 cells after 2 days by firefly luciferase based luminescene assay; type: organism-based, Hepacivirus hominis; conditions: Con1, Huh-7.5.1, 48 h
[3] = Inhibition of HCV JFH-1 envelope glycoprotein E2 interaction to cell surface protein CD81 in human Huh 7.5.1 cells after 2 days by firefly luciferase based luminescene assay; parameters: species or system Hepatitis C virus JFH-1
[4] = Half life of the compound in presence of chymotrypsin at 20 uM by HPLC analysis; type: physicochemical
[5] = Cytotoxicity against human Huh7.5.1 cells at 1000 ug/ml after 48 hrs by WST-1 assay; type: cell-based
Hepatitis C virus [6] = experiment: Antiviral activity against HCV at 50 uM; type: functional, Hepacivirus hominis

Compound | INH (Hepacivirus hominis) | EC50 (Hepatitis C virus [1]) | EC50 (Hepatitis C virus [2]) | EC50 [3] | half-life at 20 µM [4] | Activity [5] | inhibition at 50 µM (Hepatitis C virus [6])
CC[C@H](C)[C@H](NC(=O)[C@H](CC(N)=O)NC(=O)[C@H](CO)NC(=O)CNC(=O)[C@H](CO)NC(=O)[C@@H]1CCCN1C(C)=O)C(=O)N[C@H](C(=O)N[C@@]1(C)CCC/C=C\CCC[C@@](C)(C(=O)N[C@@H](CCC(=O)O)C(=O)N[C@@H](CC(=O)O)C(N)=O)NC(=O)[C@H](Cc2ccccc2)NC(=O)[C@H](CC(C)C)NC(=O)[C@H](CC(N)=O)NC1=O)[C@@H](C)CC (Ac-PSGSNII[S5]NLF[S5]ED-NH2; staple (Z) 8-12) | – | 181 µM | 280 µM | 313 µM | > 3.33 h | – | –
CC[C@H](C)[C@@H]1NC(=O)[C@@](C)(NC(=O)[C@H](CC(N)=O)NC(=O)[C@H](CO)NC(=O)CNC(=O)[C@H](CO)NC(=O)[C@@H]2CCCN2C(C)=O)CCC/C=C\CCC[C@@](C)(C(=O)N[C@@H](Cc2ccccc2)C(=O)N[C@@H](CCCCN)C(=O)N[C@@H](CCC(=O)O)C(=O)N[C@@H](CC(=O)O)C(N)=O)NC(=O)[C@H](CC(N)=O)NC(=O)[C@H](CO)NC1=O (Ac-PSGSN[S5]ISN[S5]FKED-NH2; staple (Z) 6-10) | – | 240 µM | 316 µM | 200 µM | > 3.33 h | – | –
CC[C@H](C)[C@@H]1NC(=O)[C@H]([C@@H](C)CC)NC(=O)[C@@](C)(NC(=O)[C@H](CO)NC(=O)CNC(=O)[C@H](CO)NC(=O)[C@@H]2CCCN2C(C)=O)CCCCCC/C=C/CCC[C@@](C)(C(=O)N[C@@H](CCC(=O)O)C(=O)N[C@@H](CC(=O)O)C(N)=O)NC(=O)[C@H](Cc2ccccc2)NC(=O)[C@H](CC(C)C)NC(=O)[C@H](CC(N)=O)NC(=O)[C@H](CO)NC1=O (Ac-PSGS[S8]IISNLF[S5]ED-NH2; staple (E) 5-12) | – | 357 µM | 310 µM | 78 µM | > 3.33 h | – | –
CC[C@H](C)[C@@H]1NC(=O)[C@H](CC(N)=O)NC(=O)[C@@](C)(NC(=O)CNC(=O)[C@H](CO)NC(=O)[C@@H]2CCCN2C(C)=O)CCC/C=C\CCC[C@@](C)(C(=O)N[C@@H](CC(N)=O)C(=O)N[C@@H](CC(C)C)C(=O)N[C@@H](Cc2ccccc2)C(=O)N[C@@H](CCCCN)C(=O)N[C@@H](CCC(=O)O)C(=O)N[C@@H](CC(=O)O)C(N)=O)NC(=O)[C@H]([C@@H](C)CC)NC1=O (Ac-PSG[S5]NII[S5]NLFKED-NH2; staple (Z) 4-8) | – | 40 µM | 164 µM | 21 µM | > 3.33 h | – | –
O=C(OCc1ccccc1)c1ccccc1O [BENZYL SALICYLATE] | – | – | – | – | – | – | 25%

Further lines, with some results ahead:

INH (Hepacivirus hominis) | EC50 (Hepatitis C virus [1]) | EC50 (Hepatitis C virus [2]) | EC50 [3] | half-life at 20 µM [4] | Compound | Activity [5] | inhibition at 50 µM (Hepatitis C virus [6])
38 µM | – | – | – | – | CCN(CCN(CC)C(=O)c1nc[nH]c1C(=O)N[C@@H](CC(C)C)C(=O)OCc1ccccc1)C(=O)c1nc[nH]c1C(=O)N[C@@H](CC(C)C)C(=O)OCc1ccccc1 | – | –
53 µM | – | – | – | – | CCN(CCN(CC)C(=O)c1nc[nH]c1C(=O)N[C@H](C(=O)OCc1ccccc1)C(C)C)C(=O)c1nc[nH]c1C(=O)N[C@H](C(=O)OCc1ccccc1)C(C)C | – | –
– | 39 µM | 35 µM | 17 µM | > 3.33 h | CC[C@H](C)[C@@H]1NC(=O)[C@H](CC(N)=O)NC(=O)[C@H](CO)NC(=O)[C@](C)(NC(=O)[C@H](CO)NC(=O)[C@@H]2CCCN2C(C)=O)CCCCCC/C=C\CCC[C@](C)(C(=O)N[C@@H](Cc2ccccc2)C(=O)N[C@@H](CCCCN)C(=O)N[C@@H](CCC(=O)O)C(=O)N[C@@H](CC(=O)O)C(N)=O)NC(=O)[C@H](CC(N)=O)NC(=O)[C@H](CO)NC(=O)[C@H]([C@@H](C)CC)NC1=O (Ac-PS[R8]SNIISN[R5]FKED-NH2; staple (Z) 3-10) | Non-toxic | –
– | 244 µM | 320 µM | 320 µM | 0.167 h | Ac-PSGSNIISNLFKED-NH2 | Non-toxic | –
